Assay results: ChEMBL document CHEMBL1201862, “PubChem BioAssay data set” (2004)
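A five-concentration, 48-hour dose response in 96-well plates underlies each endpoint, interpolated linearly between surrounding concentrations. GI50 = concentration required for 50% inhibition of growth.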 Calls of active or inactive are those of the source. Rule as the data show it: active = GI50 up to about 1.1 µM and inactive = higher.

Assays:
Test in all cases: growth of human tumour cells (NCI), 48 h
A549 = tested on: A549
CAKI-1 = tested on: CAKI-1
EKVX = tested on: EKVX
HL-60 = tested on: HL-60
LOX IMVI = tested on: LOX IMVI
MDA-MB-435 = tested on: MDA-MB-435
NCI-H460 = tested on: NCI-H460
OVCAR-5 = tested on: OVCAR-5
RPMI-8226 = tested on: RPMI-8226
SF-268 = tested on: SF-268
SK-MEL-28 = tested on: SK-MEL-28
SK-MEL-5 = tested on: SK-MEL-5
SN12C = tested on: SN12C
SNB-19 = tested on: SNB-19
SR = tested on: SR
T47D = tested on: T47D
UACC-257 = tested on: UACC-257
UO-31 = tested on: UO-31
KM12 = tested on: KM12
MDA-N = tested on: MDA-N

Row | SMILES | GI50 (A549) | GI50 (CAKI-1) | GI50 (EKVX) | GI50 (HL-60) | GI50 (LOX IMVI) | GI50 (MDA-MB-435) | GI50 (NCI-H460) | GI50 (OVCAR-5) | GI50 (RPMI-8226) | GI50 (SF-268) | GI50 (SK-MEL-28) | GI50 (SK-MEL-5) | GI50 (SN12C) | GI50 (SNB-19) | GI50 (SR) | GI50 (T47D) | GI50 (UACC-257) | GI50 (UO-31) | GI50 (KM12) | GI50 (MDA-N)
1 | O=C1CCC(Cc2ccc(Cl)cc2Cl)C(=O)N1 (stereo not drawn) | > 100 µM (inactive) | > 100 µM (inactive) | 65 µM (inactive) | > 100 µM (inactive) | > 100 µM (inactive) | > 100 µM (inactive) | > 100 µM (inactive) | > 100 µM (inactive) | 79.4 µM (inactive) | 82.4 µM (inactive) | > 100 µM (inactive) | > 100 µM (inactive) | > 100 µM (inactive) | > 100 µM (inactive) | > 100 µM (inactive) | 80.4 µM (inactive) | > 100 µM (inactive) | 83.6 µM (inactive) |  | 
2 | COc1cc2c(c(OC)c1OC)C(=O)[C@H](O)[C@H]2NC(N)=O | > 100 µM (inactive) | 90.6 µM (inactive) | 99.5 µM (inactive) | 90.8 µM (inactive) | 72.1 µM (inactive) | > 100 µM (inactive) | 66.8 µM (inactive) | 76.7 µM (inactive) | > 100 µM (inactive) | > 100 µM (inactive) | > 100 µM (inactive) | 40.7 µM (inactive) | > 100 µM (inactive) | > 100 µM (inactive) |  |  | 85.5 µM (inactive) | > 100 µM (inactive) | > 100 µM (inactive) | > 100 µM (inactive)
3 | CN(C)CCC(=O)/C=C\c1ccccc1 | 21.6 µM (inactive) | 18.3 µM (inactive) | 18.7 µM (inactive) | 10.6 µM (inactive) | 14.3 µM (inactive) |  | 18.9 µM (inactive) | 20.9 µM (inactive) | 14.6 µM (inactive) |  | 16.9 µM (inactive) | 17.6 µM (inactive) | 16.6 µM (inactive) | 39.2 µM (inactive) | 15 µM (inactive) |  | 17.3 µM (inactive) | 17.6 µM (inactive) | 15 µM (inactive) | 
4 | COc1ccc(NC(=O)/C(Cc2nc3ccccc3nc2O)=N\O)c(OC)c1 | > 100 µM (inactive) | > 100 µM (inactive) | > 100 µM (inactive) | > 100 µM (inactive) | > 100 µM (inactive) |  | > 100 µM (inactive) | > 100 µM (inactive) | > 100 µM (inactive) | > 100 µM (inactive) | > 100 µM (inactive) | > 100 µM (inactive) | > 100 µM (inactive) | > 100 µM (inactive) | > 100 µM (inactive) |  | > 100 µM (inactive) | > 100 µM (inactive) | > 100 µM (inactive) | 
5 | CC1=C(C(N)=O)C(c2ccncc2)C(C#N)C(=O)N1 (stereo not drawn) |  | > 100 µM (inactive) | > 100 µM (inactive) | > 100 µM (inactive) | > 100 µM (inactive) | > 100 µM (inactive) | > 100 µM (inactive) |  | > 100 µM (inactive) | > 100 µM (inactive) | > 100 µM (inactive) | > 100 µM (inactive) |  | > 100 µM (inactive) | > 100 µM (inactive) | > 100 µM (inactive) | > 100 µM (inactive) | > 100 µM (inactive) | > 100 µM (inactive) | 
6 | CCN(CC)CCCCC1CCN(CC(=O)N2c3ccccc3NC(=O)CC2C)CC1 (stereo not drawn) | > 100 µM (inactive) | > 100 µM (inactive) | > 100 µM (inactive) | 64.1 µM (inactive) | 19.4 µM (inactive) |  | > 100 µM (inactive) | > 100 µM (inactive) | 88.1 µM (inactive) | > 100 µM (inactive) | > 100 µM (inactive) | 98.4 µM (inactive) | > 100 µM (inactive) | > 100 µM (inactive) | 56.6 µM (inactive) |  | > 100 µM (inactive) | > 100 µM (inactive) | > 100 µM (inactive) | 
7 | CC1=NN(C(=O)CC(=O)N(C(=O)c2ccccc2Cl)c2ccc(C)cc2)C(=O)C1/N=N/c1ccc([N+](=O)[O-])cc1 (stereo not drawn) | 34.1 µM (inactive) | > 100 µM (inactive) | > 72.9 µM (inactive) | > 51.9 µM (inactive) | 23.9 µM (inactive) |  | > 47.3 µM (inactive) | > 46.1 µM (inactive) | > 50.4 µM (inactive) | 44.6 µM (inactive) | > 100 µM (inactive) | 99.1 µM (inactive) | > 100 µM (inactive) | 53.1 µM (inactive) | > 100 µM (inactive) |  | > 78.3 µM (inactive) | 44 µM (inactive) | > 65.5 µM (inactive) | 
8 | O=C(Cc1ccccc1)NN1C(=O)C(Cl)C1c1cc(Br)ccc1O (stereo not drawn) | 10.1 µM (inactive) | 13 µM (inactive) | 3.03 µM (inactive) | 2.46 µM (inactive) | 4.15 µM (inactive) |  | 2.2 µM (inactive) | 5.57 µM (inactive) | 3.72 µM (inactive) | 1.95 µM (inactive) | 3.94 µM (inactive) | 7.59 µM (inactive) | 7.29 µM (inactive) | 10.4 µM (inactive) | 1.56 µM (inactive) |  | 1.29 µM (inactive) | 7.45 µM (inactive) | 9.48 µM (inactive) | 
9 | Cc1nc2sccn2c1C(=O)N/N=C1\SCC(=O)N1C | > 100 µM (inactive) | > 100 µM (inactive) | > 100 µM (inactive) | > 100 µM (inactive) | > 100 µM (inactive) |  | > 100 µM (inactive) | > 100 µM (inactive) | > 100 µM (inactive) | > 100 µM (inactive) | > 100 µM (inactive) | > 100 µM (inactive) | > 100 µM (inactive) | > 100 µM (inactive) | > 100 µM (inactive) |  | > 100 µM (inactive) |  | > 100 µM (inactive) | 
10 | CSC(=S)NN=C1CCCCC1 | 26.7 µM (inactive) | 20.1 µM (inactive) | 22.8 µM (inactive) |  | 20.5 µM (inactive) | 18.7 µM (inactive) | 32.1 µM (inactive) |  | 0.165 µM (active) | 38.5 µM (inactive) | 37.8 µM (inactive) | 16 µM (inactive) | 24.4 µM (inactive) | 96.6 µM (inactive) |  | 55.1 µM (inactive) | 33.9 µM (inactive) | > 100 µM (inactive) | 28.7 µM (inactive) | 
11 | O=C1CC2CCCC23CC2(CCN13)OCCO2 (stereo not drawn) | > 100 µM (inactive) | > 100 µM (inactive) | > 100 µM (inactive) | > 100 µM (inactive) | > 100 µM (inactive) |  | > 100 µM (inactive) | > 100 µM (inactive) | > 100 µM (inactive) | > 100 µM (inactive) | > 100 µM (inactive) | > 100 µM (inactive) | > 100 µM (inactive) | > 100 µM (inactive) | > 100 µM (inactive) |  | > 100 µM (inactive) | > 100 µM (inactive) | > 100 µM (inactive) | 
12 | CC(C)=Nn1cnc(C(=N)C#N)c1N | > 100 µM (inactive) | > 100 µM (inactive) | > 100 µM (inactive) | > 100 µM (inactive) |  |  | > 100 µM (inactive) | > 100 µM (inactive) | > 100 µM (inactive) | > 100 µM (inactive) | > 100 µM (inactive) | > 10 µM (inactive) |  | > 100 µM (inactive) | > 100 µM (inactive) |  | > 100 µM (inactive) | > 100 µM (inactive) |  | > 100 µM (inactive)
13 | CCOC(=O)C1=C(C)NC(=O)NC1c1ccc(N(CCCl)CCCl)cc1Cl (stereo not drawn) | 13.7 µM (inactive) | 17.2 µM (inactive) | 22.5 µM (inactive) | 1.73 µM (inactive) | 15.9 µM (inactive) | 19 µM (inactive) | 13 µM (inactive) | 17.9 µM (inactive) |  | 15.5 µM (inactive) | 17.6 µM (inactive) | 14.7 µM (inactive) | 16.3 µM (inactive) | 17.3 µM (inactive) |  | 5.77 µM (inactive) | 16 µM (inactive) | 14.3 µM (inactive) | 19.7 µM (inactive) | 
14 | COc1ccc(C(=O)C#Cc2cnc(O)nc2O)cc1 | 20.7 µM (inactive) | 9.64 µM (inactive) | 19.4 µM (inactive) | 5.21 µM (inactive) | 3.21 µM (inactive) |  | 25.1 µM (inactive) | 17.1 µM (inactive) | 13.3 µM (inactive) | 21.1 µM (inactive) | 14 µM (inactive) | 13.5 µM (inactive) | 6.32 µM (inactive) | 17.5 µM (inactive) | 2.76 µM (inactive) |  | 11.9 µM (inactive) | 17.2 µM (inactive) | 18.7 µM (inactive) | 
15 | COc1ccc(CCc2cc(OC)cc(OC)c2)cc1 | 19.2 µM (inactive) | 13.2 µM (inactive) | 45.1 µM (inactive) | 8.69 µM (inactive) | 38.8 µM (inactive) |  | 22 µM (inactive) | > 61.5 µM (inactive) | 16.1 µM (inactive) | 39.4 µM (inactive) | 29.6 µM (inactive) | 19.2 µM (inactive) | 45.9 µM (inactive) | > 100 µM (inactive) | 9.71 µM (inactive) |  | 51.4 µM (inactive) | 52.7 µM (inactive) | 4.92 µM (inactive) | 
16 | O=C(c1ccc([N+](=O)[O-])cc1)C(Br)C(Br)c1ccnc2ccccc12 (stereo not drawn) | 8.28 µM (inactive) | 12.2 µM (inactive) | 8.79 µM (inactive) | 2.8 µM (inactive) | 2.11 µM (inactive) | 2.98 µM (inactive) | 4.5 µM (inactive) | 16.5 µM (inactive) | 2.23 µM (inactive) | 13 µM (inactive) | 11.1 µM (inactive) | 6.34 µM (inactive) | 4.46 µM (inactive) | 5.98 µM (inactive) | 2.24 µM (inactive) | 5.96 µM (inactive) | 2.18 µM (inactive) | 1.77 µM (inactive) | 1.91 µM (inactive) | 
17 | CC[C@@]1(O)C(=O)OCc2c1cc1n(c2=O)Cc2cc3c(OC)cccc3nc2-1 |  |  | 2.04 µM (inactive) | < 0.01 µM (active) | < 0.1 µM (active) |  |  | 0.417 µM (active) | 0.0158 µM (active) | < 0.1 µM (active) |  | 0.116 µM (active) | < 0.1 µM (active) | < 0.1 µM (active) | 0.1 µM (active) | 0.0194 µM (active) | 0.558 µM (active) |  | 0.867 µM (active) | 
